Literature values in patent US4231928A, “Antibacterial agents” (priority 1979, dated 1980).

Tested on: Pseudomonas aeruginosa
Settings: prior art penicillins; cited from earlier work

## CC1(C)S[C@@H]2[C@H](NC(=O)[C@H](C(=O)O)c3ccsc3)C(=O)N2[C@H]1C(=O)O [ticarcillin]
  potency against Pseudomonas aeruginosa (in words): only a relatively low potency
